How the values were obtained:
Assay in all cases: relative viability (nuclei count vs DMSO), 5 days (fraction); higher = more cells survive
[1] = compound: C1/C(=C\C2=CC=CS2)/C(=O)/C(=C/C3=CC=CS3)/C1 + CS(=O)(=O)CCNCc1ccc(-c2ccc3ncnc(Nc4ccc(OCc5cccc(F)c5)c(Cl)c4)c3c2)o1 [Lapatinib] (partner 2 µM)
Outline: (§1)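 For relative viability, nuclei counts in treated wells were divided by those in vehicle wells. Lung cancer cell lines had been pin-tool dosed in 1536-well plates the day after seeding and cultured for 5 days, then fixed and stained in one step (final 0.05% Triton X-100, 1% formaldehyde, 1 ug/ml Hoechst) and imaged at 4×. Doses were one drug alone or a fixed anchor-drug dose plus five library-drug doses (not always all listed) in √10 steps, and values are duplicate-plate medians.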

[2] = compound: C[C@]12O[C@H](C[C@]1(O)CO)n1c3ccccc3c3c4c(c5c6ccccc6n2c5c31)CNC4=O [Lestaurtinib] + CC(=O)Nc1cccc(-n2c(=O)n(C3CC3)c(=O)c3c(Nc4ccc(I)cc4F)n(C)c(=O)c(C)c32)c1 [Trametinib] (partner 0.02 µM)
Outline: as §1

[3] = compound: C[C@]12O[C@H](C[C@]1(O)CO)n1c3ccccc3c3c4c(c5c6ccccc6n2c5c31)CNC4=O [Lestaurtinib] + CC(=O)c1c(C)c2cnc(Nc3ccc(N4CCNCC4)cn3)nc2n(C2CCCC2)c1=O [Palbociclib] (partner 0.5 µM)
Outline: as §1

[4] = compound: C[C@]12O[C@H](C[C@]1(O)CO)n1c3ccccc3c3c4c(c5c6ccccc6n2c5c31)CNC4=O [Lestaurtinib] + C[C@@H](Oc1cc(-c2cnn(C3CCNCC3)c2)cnc1N)c1c(Cl)ccc(F)c1Cl [Crizotinib] (partner 1 µM)
Outline: as §1

Cell Line	relative viability ([1]; first compound 0.2 µM)	relative viability ([1]; first compound 0.6325 µM)	relative viability ([1]; first compound 2 µM)	relative viability ([1]; first compound 20 µM)	relative viability ([2]; first compound 0.005 µM)	relative viability ([2]; first compound 0.01581 µM)	relative viability ([2]; first compound 0.05 µM)	relative viability ([2]; first compound 0.1581 µM)	relative viability ([2]; first compound 0.5 µM)	relative viability ([3]; first compound 0.005 µM)	relative viability ([3]; first compound 0.01581 µM)	relative viability ([3]; first compound 0.05 µM)	relative viability ([3]; first compound 0.1581 µM)	relative viability ([3]; first compound 0.5 µM)	relative viability ([4]; first compound 0.005 µM)	relative viability ([4]; first compound 0.01581 µM)	relative viability ([4]; first compound 0.05 µM)	relative viability ([4]; first compound 0.1581 µM)	relative viability ([4]; first compound 0.5 µM)	relative viability ([1]; first compound 6.325 µM)
NCI-H1792	0.819	0.915	1.04	0.899	0.429	0.516	0.339	0.386	0.244	0.976	0.734	0.491	0.768	0.366	0.901	1.18	0.49	0.799	0.476	–
LXF-289	0.926	0.915	0.886	0.91	0.66	0.691	0.494	0.467	0.159	0.624	0.633	0.443	0.49	0.234	0.791	0.815	0.568	0.798	0.183	0.792
HCC-827	0.21	0.177	0.205	0.204	0.536	0.527	0.573	0.456	0.458	0.533	0.489	0.444	0.382	0.43	0.911	1.08	0.85	0.71	0.335	0.191
EMC-BAC-2	0.931	0.873	0.952	0.843	0.926	0.905	0.973	0.748	0.415	0.505	0.51	0.456	0.353	0.305	0.722	0.76	0.599	0.569	0.264	0.866
NCI-H520	0.912	0.896	0.786	0.763	0.715	0.676	0.534	0.42	0.211	0.262	0.234	0.201	0.171	0.158	0.653	0.687	0.332	0.42	0.344	0.817
NCI-H1755	1.07	1.03	1.09	0.993	0.766	0.774	0.731	0.571	0.407	0.446	0.427	0.464	0.376	0.382	0.865	0.645	0.724	0.438	0.268	0.882
NCI-H1993	0.815	0.783	0.731	0.781	0.553	0.505	0.483	0.498	0.418	0.689	0.27	0.717	0.569	0.411	0.936	0.971	0.819	0.635	0.548	0.685
NCI-H23	0.918	1.4	1.44	1.12	0.377	0.455	0.35	0.408	0.225	0.578	0.624	0.527	0.5	0.274	0.466	0.495	0.401	0.546	0.233	0.861
NCI-H1437	0.751	0.788	0.791	0.692	0.569	0.684	0.56	0.691	0.603	0.35	0.371	0.369	0.364	0.415	0.863	0.897	0.906	0.887	0.674	0.748
SK-MES-1	0.498	0.45	0.486	0.395	0.535	0.515	0.495	0.415	0.208	0.329	0.324	0.266	0.337	0.228	1.02	0.964	0.92	0.505	0.281	0.322
NCI-H2405	1.12	1.07	1.33	1.14	0.701	0.656	0.572	0.54	0.274	0.518	0.546	0.492	0.515	0.275	0.852	0.87	0.767	0.698	0.578	0.887
NCI-H2023	0.877	0.87	0.889	0.67	0.557	0.712	0.599	0.354	0.132	0.402	0.316	0.384	0.261	0.121	0.635	0.619	0.723	0.654	0.113	0.734
NCI-H838	1.01	0.889	0.994	0.866	0.559	0.497	0.486	0.333	0.0966	0.209	0.204	0.196	0.194	0.147	0.78	0.803	0.71	0.465	0.158	0.926
NCI-H661	0.465	0.49	0.507	0.516	0.609	0.633	0.508	0.607	0.321	0.423	0.413	0.445	0.467	0.317	1.01	0.84	0.97	0.927	0.676	0.475
NCI-H1734	1.02	1.05	1.17	1.09	0.788	0.788	0.712	0.478	0.267	0.352	0.255	0.338	0.331	0.197	0.741	0.649	0.538	0.424	0.205	0.906
NCI-H1650	0.654	0.735	0.961	0.803	0.516	0.66	0.656	0.687	0.335	0.353	0.433	0.356	0.396	0.245	0.901	1.13	0.841	1.29	0.308	0.748

Cell Line	relative viability ([1]; first compound 0.2 µM)	relative viability ([1]; first compound 0.6325 µM)	relative viability ([1]; first compound 2 µM)	relative viability ([1]; first compound 20 µM)	relative viability ([2]; first compound 0.005 µM)	relative viability ([2]; first compound 0.01581 µM)	relative viability ([2]; first compound 0.05 µM)	relative viability ([2]; first compound 0.1581 µM)	relative viability ([2]; first compound 0.5 µM)	relative viability ([3]; first compound 0.005 µM)	relative viability ([3]; first compound 0.01581 µM)	relative viability ([3]; first compound 0.05 µM)	relative viability ([3]; first compound 0.1581 µM)	relative viability ([3]; first compound 0.5 µM)	relative viability ([4]; first compound 0.005 µM)	relative viability ([4]; first compound 0.01581 µM)	relative viability ([4]; first compound 0.05 µM)	relative viability ([4]; first compound 0.1581 µM)	relative viability ([4]; first compound 0.5 µM)	relative viability ([1]; first compound 6.325 µM)
NCI-H1944	0.735	0.695	0.864	0.748	0.408	0.464	0.386	0.345	0.292	0.334	0.332	0.286	0.248	0.292	1.13	1.28	0.745	0.695	0.362	0.782
LK-2	0.897	0.887	1.2	0.988	0.778	0.941	0.718	0.65	0.293	0.705	0.833	0.756	0.53	0.307	0.241	0.264	0.267	0.188	0.188	1.05
HCC-15	0.929	0.897	0.835	0.854	0.405	0.409	0.306	0.364	0.189	0.751	0.779	0.68	0.687	0.187	1.04	1.01	0.595	0.628	0.291	0.762
NCI-H727	0.735	0.877	1.02	0.752	0.375	0.452	0.423	–	0.405	0.723	0.713	0.719	–	0.716	1.26	0.911	0.718	0.613	0.323	0.701
HOP-62	0.902	0.589	0.9	0.983	0.409	0.446	0.389	0.351	0.319	0.491	0.539	0.496	0.468	0.335	0.905	0.919	0.972	0.721	0.18	0.932
NCI-H3122	1	1.06	1.04	0.995	0.298	0.228	0.228	0.223	0.335	0.201	0.21	0.2	0.229	0.22	0.321	0.286	0.322	0.33	0.273	0.877
NCI-H647	1.13	1.26	1.28	1	0.478	0.41	0.22	0.29	0.169	0.382	0.201	0.227	0.247	0.164	0.93	1.12	0.624	0.225	0.141	0.763
NCI-H650	0.944	1.17	1.05	0.989	0.88	1.03	0.886	0.522	0.34	0.315	0.323	0.249	0.236	0.229	0.744	0.764	0.509	0.414	0.226	0.925
EKVX	0.184	0.207	0.264	0.199	0.507	–	0.362	0.372	0.356	0.346	–	0.355	0.421	0.426	0.855	1.11	0.945	0.892	0.551	0.185
NCI-H460	1.07	1.2	0.929	0.893	0.237	0.201	0.144	0.142	0.0705	0.151	0.231	0.112	0.116	0.116	1.16	0.905	0.448	0.676	0.516	–
LCLC-97TM1	1.14	0.806	1.15	1.18	–	0.196	0.199	0.157	0.226	–	0.243	0.133	0.134	0.194	0.382	0.293	0.241	0.259	0.149	0.955
COR-L23	0.923	1.02	0.841	0.92	0.755	0.652	0.272	0.317	0.0849	0.337	0.319	0.223	0.248	0.11	0.707	0.763	–	0.489	0.161	0.859
NCI-H1355	0.964	0.951	1.04	0.911	0.481	0.435	0.359	0.318	0.285	0.455	0.403	0.332	0.273	0.254	1.29	1.09	1.01	0.86	0.549	0.908
NCI-H1666	0.633	0.59	0.565	0.614	0.898	0.892	0.882	0.88	0.781	0.705	0.704	0.638	0.74	0.646	1.04	1.38	1.39	0.96	0.409	0.561
EPLC-272H	1.04	0.952	1.1	0.962	0.271	0.23	0.218	0.224	0.286	0.359	0.317	0.269	0.3	0.353	0.939	0.65	0.458	0.574	0.581	0.889
NCI-H1651	0.81	0.93	0.793	0.769	0.86	0.919	0.887	0.832	0.77	0.536	0.594	0.551	0.569	0.497	0.897	0.997	0.837	0.858	0.551	–

Source: the supplement of paper PMC10307832
